Assay results: article PMC9604401 (International Journal of Molecular Sciences, 2022)
Like-named read-outs stand apart in the source and are kept apart here.

Assays:
MERS nsp1 = MERS nsp1 (Middle East respiratory syndrome-related coronavirus, UniProt K9N7C7); test: biochemical; format: binding
SARS-CoV-1 nsp1 = SARS-CoV-1 nsp1 (Severe acute respiratory syndrome coronavirus, UniProt P0C6X7); test: biochemical; format: binding
SARS-CoV-2 nsp1_10-126 [1] = target: T1, SARS-CoV-2 nsp1_10-126 (Severe acute respiratory syndrome coronavirus 2, UniProt P0DTD1); test: Thermal shift assay (TSA) by nanoDSF; format: binding; conditions: 4 mM fragment; for TSA effect on unfolding of the protein, in words / TSA Ti ± SD: 2.0% DMSO; for TSA Ti ± SD: nanoDSF, 1.25 mg/mL protein, n = 3, APUC = atypical protein unfolding curve; for TSA ΔTi: Ti (protein-fragment) − Ti (protein-DMSO), control Ti 54.05 °C in 2.0% DMSO; for TSA |ΔTi|-3SD: > 0 regarded as statistically significant
Description: For TSA, nsp1 in the presence of an equal concentration of DMSO was used as a control to offset the influence of DMSO on the protein. The averaged change of inflection temperature (△Ti) of the protein in the presence of fragments higher than three-fold of standard deviation (|△Ti|-3*SD > 0) was regarded as statistically significant. […] In this regard, TSA may not be suitable yet for the validation of hits against SARS-CoV-2 nsp1_10-126, as we have recently also observed for another SARS-CoV-2 protein, nsp10 [41]. With respect to physicochemical properties, calculated values for fragments are well within the expected range, indicating good starting points for structure-based drug design.
The protein concentration used in this assay was determined by analysing the unfolding curves of SARS-CoV-2 nsp1_10-126 at different concentrations in the presence of 2% DMSO. Fragments dissolved in DMSO (200 mM stocks) were diluted in buffer E supplied with 0.05% Pluronic® F-127 and mixed with nsp1_10-126. The final concentration of fragments was 4 mM containing 2.0% DMSO, while the final protein concentration was 1.25 mg/mL. After centrifugation for 5 min at 6000 rpm, the samples were loaded into Tycho NT.6 capillaries (TY-C001, NanoTemper, München, Germany) with 1.25 mg/mL SARS-CoV-2 nsp1_10-126 in the presence of 2% DMSO as control and measured by the Tycho NT.6 instrument (NanoTemper, München, Germany) in triplicate. The resulting Ti values are presented as means ± SD (n = 3) and the △Ti values for each sample were calculated with the following equation. △Ti = Ti (protein-fragment) − Ti (protein-DMSO)

SARS-CoV-2 nsp1_10-126 [2] = target: T1, SARS-CoV-2 nsp1_10-126; test: Microscale thermophoresis (MST) binding affinity

MERS nsp1, sequence (K9N7C7 2-193 limits assumed): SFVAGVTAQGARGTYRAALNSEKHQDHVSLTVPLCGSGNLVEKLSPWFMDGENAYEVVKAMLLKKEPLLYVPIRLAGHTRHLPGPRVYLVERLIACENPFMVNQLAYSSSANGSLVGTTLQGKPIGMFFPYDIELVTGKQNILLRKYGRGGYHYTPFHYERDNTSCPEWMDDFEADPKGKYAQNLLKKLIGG

SMILES	Kd (MERS nsp1)	Kd (SARS-CoV-1 nsp1)	TSA effect on unfolding of the protein, in words (SARS-CoV-2 nsp1_10-126 [1])	TSA Ti ± SD (SARS-CoV-2 nsp1_10-126 [1])	Kd (SARS-CoV-2 nsp1_10-126 [2])	MERS nsp1 MST, Kd (MERS nsp1)	Cross-binding to SARS-CoV-1 nsp1 by MST, in words (SARS-CoV-1 nsp1)	SARS-CoV-1 nsp1 MST, Kd (SARS-CoV-1 nsp1)	TSA ΔTi (SARS-CoV-2 nsp1_10-126 [1])	Kd (SARS-CoV-2 nsp1_10-126 [2]; read-out: SARS-CoV-2 nsp1 MST, Kd)	TSA |ΔTi|-3SD (SARS-CoV-2 nsp1_10-126 [1])	Cross-binding to MERS nsp1 by MST, in words (MERS nsp1)
CNCc1ccc(-c2cccs2)cc1 [Fragment 5E11]	> 20 mM	12.8 ± 24.1 mM	atypical unfolding curves	APUC	0.48 ± 0.3 mM	–	–	–	–	–	–	–
C[C@H](N)c1ccc(Cl)cc1 [Fragment 7H2]	–	–	Destabilisation effects	53.55 ± 0.25 °C	> 20 mM	n.i	no binding	n.i.	−0.50 °C	> 20 mM	–	–
OCCNCc1ccccc1 [Fragment 8E6]	> 20 mM	> 20 mM	Destabilisation effects	52.72 ± 0.22 °C	8.32 ± 3.32 mM	–	–	–	−1.33 °C	–	0.67 °C	–
Nc1nc(-c2ccc(O)cc2)cs1 [Fragment 10B6]	4.92 ± 4.19 mM	> 20 mM	Destabilisation effects	51.27 ± 0.15 °C	0.56 ± 0.19 mM	–	–	–	−2.79 °C	–	2.33 °C	moderate binding affinity
CNCc1csc(-c2cccc(Cl)c2)n1 [Fragment 11C6]	–	0.38 ± 0.14 mM	Destabilisation effects	53.78 ± 0.05 °C	1.16 ± 0.22 mM	n.i.	strong cross-binding effects	–	−0.27 °C	–	0.13 °C	–
